Experiments:
TK-10 = assay: Cytotoxicity against human TK10 cells assessed as cell growth at 10 uM after 48 hrs by MTT assay; assay type: functional; details: TK-10, 48 h, read-out: Activity
NCI-H23 = assay: Cytotoxicity against human NCI-H23 cells assessed as cell growth at 10 uM after 48 hrs by MTT assay; assay type: functional; details: NCI-H23, 48 h, read-out: Activity
UACC-257 = assay: Cytotoxicity against human UACC257 cells assessed as cell growth at 10 uM after 48 hrs by MTT assay; assay type: functional; details: UACC-257, 48 h, read-out: Activity
NCI-H226 = assay: Cytotoxicity against human NCI-H226 cells assessed as cell growth at 10 uM after 48 hrs by MTT assay; assay type: functional; details: NCI-H226, 48 h, read-out: Activity
SK-MEL-28 = assay: Cytotoxicity against human SK-MEL-28 cells assessed as cell growth at 10 uM after 48 hrs by MTT assay; assay type: functional; details: SK-MEL-28, 48 h, read-out: Activity
SF-295 = assay: Cytotoxicity against human SF295 cells assessed as cell growth at 10 uM after 48 hrs by MTT assay; assay type: functional; details: SF-295, 48 h, read-out: Activity
SNB-19 = assay: Cytotoxicity against human SNB19 cells assessed as cell growth at 10 uM after 48 hrs by MTT assay; assay type: functional; details: SNB-19, 48 h, read-out: Activity
MDA-MB-435 = assay: Cytotoxicity against human MDA-MB-435 cells assessed as cell growth at 10 uM after 48 hrs by MTT assay; assay type: functional; details: MDA-MB-435, 48 h, read-out: Activity
HOP-92 = assay: Cytotoxicity against human HOP92 cells assessed as cell growth at 10 uM after 48 hrs by MTT assay; assay type: functional; details: HOP-92, 48 h, read-out: Activity
MDA-MB-468 = assay: Cytotoxicity against human MDA-MB-468 cells assessed as cell growth at 10 uM after 48 hrs by MTT assay; assay type: functional; details: MDA-MB-468, 48 h, read-out: Activity
SK-OV-3 = assay: Cytotoxicity against human SKOV3 cells assessed as cell growth at 10 uM after 48 hrs by MTT assay; assay type: functional; details: SK-OV-3, 48 h, read-out: Activity
[1] = target: T1, Cyclin-dependent kinase 1/cyclin B1 (Homo sapiens) (UniProt P06493+P14635); assay: Inhibition of human CDK1/Cyclin B assessed as residual enzyme activity at 0.3 uM after 40 mins by scintillation counting; assay type: protein-complex assay
T1 sequence (P06493 whole entry, looked up): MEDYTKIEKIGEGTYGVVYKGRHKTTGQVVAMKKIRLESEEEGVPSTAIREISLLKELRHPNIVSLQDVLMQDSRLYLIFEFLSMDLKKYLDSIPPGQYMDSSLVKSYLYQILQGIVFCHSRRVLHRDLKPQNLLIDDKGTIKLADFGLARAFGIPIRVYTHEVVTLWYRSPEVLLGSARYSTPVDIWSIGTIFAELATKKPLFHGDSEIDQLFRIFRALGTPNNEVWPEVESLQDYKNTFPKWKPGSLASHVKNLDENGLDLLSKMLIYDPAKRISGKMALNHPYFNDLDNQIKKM
T1 sequence (P14635 whole entry, looked up): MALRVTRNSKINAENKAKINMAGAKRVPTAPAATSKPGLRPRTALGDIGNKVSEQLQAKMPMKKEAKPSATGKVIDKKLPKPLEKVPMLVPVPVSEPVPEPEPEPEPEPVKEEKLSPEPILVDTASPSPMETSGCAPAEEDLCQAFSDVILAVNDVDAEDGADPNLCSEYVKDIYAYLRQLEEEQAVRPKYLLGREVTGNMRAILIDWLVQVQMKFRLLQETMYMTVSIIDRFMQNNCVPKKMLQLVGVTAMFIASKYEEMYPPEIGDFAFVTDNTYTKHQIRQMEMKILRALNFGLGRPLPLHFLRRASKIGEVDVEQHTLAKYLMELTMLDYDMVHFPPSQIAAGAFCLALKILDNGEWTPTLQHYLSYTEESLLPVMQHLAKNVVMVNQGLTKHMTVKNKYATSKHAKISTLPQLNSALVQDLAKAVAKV

RXF 393 = assay: Cytotoxicity against human […] cells assessed as cell growth at 10 uM after 48 hrs by MTT assay; assay type: functional; details: RXF 393, 48 h, read-out: Activity
OVCAR-3 = assay: Cytotoxicity against human OVCAR-3 cells assessed as cell growth at 10 uM after 48 hrs by MTT assay; assay type: functional; details: OVCAR-3, 48 h, read-out: Activity
ACHN = assay: Cytotoxicity against human ACHN cells assessed as cell growth at 10 uM after 48 hrs by MTT assay; assay type: functional; details: read-out: Activity
A498 = assay: Cytotoxicity against human A498 cells assessed as cell growth at 10 uM after 48 hrs by MTT assay; assay type: functional; details: A498, 48 h, read-out: Activity
U-251 = assay: Cytotoxicity against human U251 cells assessed as cell growth at 10 uM after 48 hrs by MTT assay; assay type: functional; details: U-251, 48 h, read-out: Activity
OVCAR-8 = assay: Cytotoxicity against human OVCAR8 cells assessed as cell growth at 10 uM after 48 hrs by MTT assay; assay type: functional; details: OVCAR-8, 48 h, read-out: Activity
OVCAR-5 = assay: Cytotoxicity against human OVCAR5 cells assessed as cell growth at 10 uM after 48 hrs by MTT assay; assay type: functional; details: OVCAR-5, 48 h, read-out: Activity
MOLT-4 = assay: Cytotoxicity against human MOLT4 cells assessed as cell growth at 10 uM after 48 hrs by MTT assay; assay type: functional; details: MOLT-4, 48 h, read-out: Activity
NCI-H522 = assay: Cytotoxicity against human NCI-H522 cells assessed as cell growth at 10 uM after 48 hrs by MTT assay; assay type: functional; details: NCI-H522, 48 h, read-out: Activity
IGROV-1 = assay: Cytotoxicity against human IGROV1 cells assessed as cell growth at 10 uM after 48 hrs by MTT assay; assay type: functional; details: IGROV-1, 48 h, read-out: Activity
LOX IMVI = assay: Cytotoxicity against human LOXIMVI cells assessed as cell growth at 10 uM after 48 hrs by MTT assay; assay type: functional; details: read-out: Activity
HCT-15 = assay: Cytotoxicity against human HCT15 cells assessed as cell growth at 10 uM after 48 hrs by MTT assay; assay type: functional; details: HCT-15, 48 h, read-out: Activity
COLO 205 = assay: Cytotoxicity against human COLO205 cells assessed as cell growth at 10 uM after 48 hrs by MTT assay; assay type: functional; details: COLO 205, 48 h, read-out: Activity
HL-60(TB) = assay: Cytotoxicity against human HL-60(TB) cells assessed as cell growth at 10 uM after 48 hrs by MTT assay; assay type: functional; details: HL-60, 48 h, read-out: Activity
[2] = target: Glycogen synthase kinase-3 beta (Homo sapiens) (UniProt P49841); assay: Inhibition of human GSK3-beta assessed as residual enzyme activity at 0.3 uM after 40 mins by scintillation counting
Sequence of Glycogen synthase kinase-3 beta (Homo sapiens) (P49841 whole entry, looked up): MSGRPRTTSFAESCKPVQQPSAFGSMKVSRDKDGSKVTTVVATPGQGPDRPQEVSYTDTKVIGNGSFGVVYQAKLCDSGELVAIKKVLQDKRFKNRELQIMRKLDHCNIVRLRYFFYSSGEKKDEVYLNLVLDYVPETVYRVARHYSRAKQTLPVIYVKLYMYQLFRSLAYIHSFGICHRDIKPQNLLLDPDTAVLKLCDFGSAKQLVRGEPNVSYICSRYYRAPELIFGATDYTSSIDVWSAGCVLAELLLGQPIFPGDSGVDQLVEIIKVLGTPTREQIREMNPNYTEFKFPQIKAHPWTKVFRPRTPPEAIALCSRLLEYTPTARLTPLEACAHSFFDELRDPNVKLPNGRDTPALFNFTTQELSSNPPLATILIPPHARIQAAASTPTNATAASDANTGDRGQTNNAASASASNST

A549 = assay: Cytotoxicity against human A549 cells assessed as cell growth at 10 uM after 48 hrs by MTT assay; assay type: functional; details: A549, 48 h, read-out: Activity
UO-31 = assay: Cytotoxicity against human UO31 cells assessed as cell growth at 10 uM after 48 hrs by MTT assay; assay type: functional; details: UO-31, 48 h, read-out: Activity
K562 = assay: Cytotoxicity against human K562 cells assessed as cell growth at 10 uM after 48 hrs by MTT assay; assay type: functional; details: K562, 48 h, read-out: Activity
UACC-62 = assay: Cytotoxicity against human UACC62 cells assessed as cell growth at 10 uM after 48 hrs by MTT assay; assay type: functional; details: UACC-62, 48 h, read-out: Activity
[3] = Cytotoxicity against human Hs 578T cells assessed as cell growth at 10 uM after 48 hrs by MTT assay; assay type: functional; details: read-out: Activity
[4] = target: T1, Cyclin-dependent kinase 1/cyclin B1 (Homo sapiens); assay: Inhibition of human CDK1/Cyclin B assessed as residual enzyme activity at 3 uM after 40 mins by scintillation counting; assay type: protein-complex assay
HT-29 = assay: Cytotoxicity against human HT-29 cells assessed as cell growth at 10 uM after 48 hrs by MTT assay; assay type: functional; details: HT-29, 48 h, read-out: Activity
HCT-116 = assay: Cytotoxicity against human HCT116 cells assessed as cell growth at 10 uM after 48 hrs by MTT assay; assay type: functional; details: HCT-116, 48 h, read-out: Activity
NCI-H460 = assay: Cytotoxicity against human NCI-H460 cells assessed as cell growth at 10 uM after 48 hrs by MTT assay; assay type: functional; details: NCI-H460, 48 h, read-out: Activity
HOP-62 = assay: Cytotoxicity against human HOP62 cells assessed as cell growth at 10 uM after 48 hrs by MTT assay; assay type: functional; details: HOP-62, 48 h, read-out: Activity

Molecule CN1C(=O)/C(=C2/C(=O)N(C)c3ncccc32)c2cccnc21 has a growth at 10 µM (TK-10) of 94.4%, a growth at 10 µM (NCI-H23) of 103% and a growth at 10 µM (UACC-257) of 102%. It also gave a growth at 10 µM (NCI-H226) of 102%, a growth at 10 µM (SK-MEL-28) of 106% and a growth at 10 µM (SF-295) of 98.9%. For the same molecule, the growth at 10 µM (SNB-19) was 99.4%, the growth at 10 µM (MDA-MB-435) was 101% and the growth at 10 µM (HOP-92) was 108%. The growth at 10 µM (MDA-MB-468) was 95.5%, the growth at 10 µM (SK-OV-3) was 111% and the Activity [1] was 88%. It also gave a growth at 10 µM (RXF 393) of 101%, a growth at 10 µM (OVCAR-3) of 132% and a growth at 10 µM (ACHN) of 94.6%. The growth at 10 µM (A498) was 120%, the growth at 10 µM (U-251) was 95.8% and the growth at 10 µM (OVCAR-8) was 88.8%. It also gave a growth at 10 µM (OVCAR-5) of 86.7%, a growth at 10 µM (MOLT-4) of 127% and a growth at 10 µM (NCI-H522) of 98%. For the same molecule, the growth at 10 µM (IGROV-1) was 52.2%, the growth at 10 µM (LOX IMVI) was 101% and the growth at 10 µM (HCT-15) was 96%. It also gave a growth at 10 µM (COLO 205) of 117%, a growth at 10 µM (HL-60(TB)) of 183% and an Activity [2] of 105%. The growth at 10 µM (A549) was 101%, the growth at 10 µM (UO-31) was 88.3% and the growth at 10 µM (K562) was 137%. For the same molecule, the growth at 10 µM (UACC-62) was 103%, the growth at 10 µM [3] was 115% and the Activity [4] was 95%. The growth at 10 µM (HT-29) was 99.5%, the growth at 10 µM (HCT-116) was 90.4% and the growth at 10 µM (NCI-H460) was 121%. The growth at 10 µM (HOP-62) was 91.1%.
In the case of O=C1Nc2ncccc2/C1=C1/Nc2ccccc2/C1=N\O, the growth at 10 µM (TK-10) is reported as 40.3%, the growth at 10 µM (NCI-H23) is reported as 89.7% and the growth at 10 µM (UACC-257) is reported as 92.6%. The growth at 10 µM (NCI-H226) was 78.6%, the growth at 10 µM (SK-MEL-28) was 75.3% and the growth at 10 µM (SF-295) was 94.9%. For the same molecule, the growth at 10 µM (SNB-19) was 96.5%, the growth at 10 µM (MDA-MB-435) was 72.6% and the growth at 10 µM (HOP-92) was 54%. It also gave a growth at 10 µM (MDA-MB-468) of 28.4%, a growth at 10 µM (SK-OV-3) of 6.5% and an Activity [1] of 105%. For the same molecule, the growth at 10 µM (RXF 393) was 29.4%, the growth at 10 µM (OVCAR-3) was 69.3% and the growth at 10 µM (ACHN) was 22.6%. It also gave a growth at 10 µM (A498) of -11.7%, a growth at 10 µM (U-251) of 87.3% and a growth at 10 µM (OVCAR-8) of 79.6%. It also gave a growth at 10 µM (OVCAR-5) of 87.7%, a growth at 10 µM (MOLT-4) of 40.8% and a growth at 10 µM (NCI-H522) of 47.6%. It also gave a growth at 10 µM (IGROV-1) of -25.3%, a growth at 10 µM (LOX IMVI) of 44.5% and a growth at 10 µM (HCT-15) of 33.9%. It also gave a growth at 10 µM (COLO 205) of 106%, a growth at 10 µM (HL-60(TB)) of 125% and an Activity [2] of 64%. It also gave a growth at 10 µM (A549) of 46.6%, a growth at 10 µM (UO-31) of 10.6% and a growth at 10 µM (K562) of 53.2%. For the same molecule, the growth at 10 µM (UACC-62) was 56.7%, the growth at 10 µM [3] was -9.72% and the Activity [4] was 69%. The growth at 10 µM (HT-29) was 102%, the growth at 10 µM (HCT-116) was 36.9% and the growth at 10 µM (NCI-H460) was 52.2%. For the same molecule, the growth at 10 µM (HOP-62) was 45.9%.
Molecule O=C1Nc2ncccc2/C1=C1/Nc2ccccc2C1=O has a growth at 10 µM (TK-10) of 56.4%, a growth at 10 µM (NCI-H23) of 76% and a growth at 10 µM (UACC-257) of 96.5%. It also gave a growth at 10 µM (NCI-H226) of 89%, a growth at 10 µM (SK-MEL-28) of 123% and a growth at 10 µM (SF-295) of 102%. For the same molecule, the growth at 10 µM (SNB-19) was 96.4%, the growth at 10 µM (MDA-MB-435) was 92.8% and the growth at 10 µM (HOP-92) was 96.9%. The growth at 10 µM (MDA-MB-468) was 42.8%, the growth at 10 µM (SK-OV-3) was 89.5% and the Activity [1] was 88%. It also gave a growth at 10 µM (RXF 393) of 71.2%, a growth at 10 µM (OVCAR-3) of 75.8% and a growth at 10 µM (ACHN) of 51.5%. For the same molecule, the growth at 10 µM (A498) was 117%, the growth at 10 µM (U-251) was 88.2% and the growth at 10 µM (OVCAR-8) was 84.4%. It also gave a growth at 10 µM (OVCAR-5) of 77.7%, a growth at 10 µM (MOLT-4) of 85.3% and a growth at 10 µM (NCI-H522) of 76.3%. For the same molecule, the growth at 10 µM (IGROV-1) was -40.9%, the growth at 10 µM (LOX IMVI) was 76.3% and the growth at 10 µM (HCT-15) was 77.9%. The growth at 10 µM (COLO 205) was 82.8%, the growth at 10 µM (HL-60(TB)) was 173% and the Activity [2] was 93%. For the same molecule, the growth at 10 µM (A549) was 82.3%, the growth at 10 µM (UO-31) was 46.2% and the growth at 10 µM (K562) was 85.5%. The growth at 10 µM (UACC-62) was 79.6%, the growth at 10 µM [3] was 72.5% and the Activity [4] was 65%. For the same molecule, the growth at 10 µM (HT-29) was 93.8%, the growth at 10 µM (HCT-116) was 48.5% and the growth at 10 µM (NCI-H460) was 47.7%. The growth at 10 µM (HOP-62) was 68.8%.

— ChEMBL document CHEMBL1154822, “Synthesis and antiproliferative activity of 7-azaindirubin-3'-oxime, a 7-aza isostere of the natural indirubin pharmacophore” (J Nat Prod, 2009)
